# Results from US11286304B2, “Anti-galectin-7 antibody, kit comprising the same, and uses thereof” (Academia Sinica, priority 2018, dated 2022).
# Key:
# [1] = tested on: galectin-7; assay: Galectin-7 protein in lung cancer cells (immunoblot); assay type: cell-based, human; conditions: for effect on fluvastatin-induced galectin-7 upregulation: co-administered with fluvastatin, 200 μM Mevalonate, 20 μM GGPP, 20 μM FPP
# Method: (§1) CL83, CL141, CL100, CL25, PC9, PC9-IR, CL97, H1975, and H3255 cells were obtained from Dr. Pan-Chyr Yang (National Taiwan University, Taiwan), and A-431 (ATCC© CRL-1555™), H1650 ((ATCC© CRL-5883™)) and HCC827 ((ATCC© CRL-2868™)) cells were purchased from ATCC. Cells were cultured in RPMI 1640 medium supplemented with 10% fetal bovine serum (Gibco). The mRNA of A549, H23, H226BR, H358, H460, H661, H928, H1299, H1435, and H1437 cells were produced by conventional method, such as the method as described herein.
# Lysates from different lung cancer cell samples were prepared and aliquots containing 30 μg of protein from each lysate were analyzed using either 10% or 12% sodium dodecyl sulfate-polyacrylamide gel electrophoresis (SDS-PAGE). A polyvinylidene difluoride Immobilon H-bond membrane (EMD Millipore) was used for immunoblot analysis. The primary antibody against galectin-7 (Novagen) was used.
# [2] = tested on: IL-8; assay: IL-8 production by keratinocytes (ELISA); assay type: cell-based, human; conditions: for IL-8 production induced by IL-17A: galectin-7 knockdown keratinocytes, data not shown; for IL-8 production: HaCaT and HEKn cells subjected to immune stimuli, ELISA
# Method: (§2) To measure the concentrations of proinflammatory cytokines secreted by keratinocytes, 2×10^4 cells were seeded in 96-well plates. Cells were incubated for 24 hours and then treated with 50 μg/ml LPS, 100 ng/ml human TNF-α, 100 or 200 ng/ml human IL-17A, 200 ng/ml human IL-22, 100 ng/ml human IL-23, or 50 ng/ml IFN-γ at 37° C. for 48 hours. In addition, the MEK inhibitor PD98059 was added along with stimulation by LPS or IL-17A (48 hours). The supernatants were then collected and analyzed by ELISAs, which were performed using a specific combination of paired antibodies (capture and detection antibodies).
# [3] = tested on: IL-6; assay: IL-6 production by keratinocytes (ELISA); assay type: cell-based, human; conditions: for IL-6 production induced by IL-17A: galectin-7 knockdown keratinocytes, data not shown; for IL-6 production: HaCaT and HEKn cells subjected to immune stimuli, ELISA
# Method: as §2
# [4] = tested on: galectin-7; assay: Galectin-7 expression in keratinocytes (real-time PCR, immunoblot); assay type: cell-based, human; conditions: for galectin-7 expression: keratinocytes, other statin drugs, data not shown; for galectin-7 mRNA and protein expression: 24 hours, methylprednisolone 10.6 μM, tobramycin 8.6 μM, fluvastatin 9.2 μM, pempidine 13 μM; for galectin-7 protein expression: treated with cytokines for 2 days, immunoblot
# Method: Human keratinocyte cell line HaCaT was maintained at 37° C. in Dulbecco's modified Eagle's medium (DMEM) supplemented with 10% of fetal bovine serum (FBS), 2 mM glutamine, 100 U/ml penicillin and 100 μg/ml streptomycin. Short hairpin RNA (shRNA) reagents were obtained from the National RNAi Core Facility located at the Institute of Molecular Biology and Genomic Research Center, Academia Sinica, supported by the National Core Facility Program for Biotechnology Grants of NSC. Four shRNAs with clone IDs of TRCN0000057393, TRCN0000057394, TRCN0000057395, and TRCN0000057396 were used to generate stable galectin-7 knockdown HaCaT clones. HaCaT cells were infected with one of the four shRNA-expressing lentiviruses and puromycin was employed to select stable cell clones after 3 days of infection. After puromycin selection, four individual pooled clones were cultured in puromycin-free medium for 2 weeks before further analysis.
# Primary neonatal human epithelial keratinocytes, HEKn cells, were purchased from Gibco. HEKn cells were cultured at 37° C. in keratinocyte serum-free medium (K-SFM) supplemented with 30 μg/ml bovine pituitary extract and 5 ng/ml recombinant human epidermal growth factor from the same company. Compared with HaCaT cells, HEKn cells have a limited proliferation ability and are not suitable for establishing shRNA-based stable knockdown cells; therefore, a small interfering RNA (siRNA) oligo was used to transiently knock down the expression of galectin-7. The Silencer® Select siRNAs were purchased from Invitrogen, including negative control #1 and a predesigned siRNA targeting human galectin-7 (Catalog number: s230574, which targets the sequence of exon 3 of NM_002307.3). Thirty picomoles of siRNAs were delivered into HEKn cells in a 6-well plate setup by means of Lipofectamine 2000.
# Cells were harvested and lysed in RIPA lysis buffer containing 1% of Triton X-100 and a protease inhibitor cocktail, and total protein concentrations were measured with a protein assay kit. Proteins in the samples of the lysates with the same amounts of total protein were separated by sodium dodecyl sulfate polyacrylamide gel electrophoresis (SDS-PAGE) and analyzed by immunoblotting. Primary antibodies against phospho-Erk1 (pT202)/Erk2 (pT185), Erk1, Erk2, NF-κB p65, phospho-NF-κB p65 (pS536), IκBα, phospho-IκBα pS32, β-actin, or GAPDH were applied to detect the corresponding proteins. Horseradish peroxidase (HRP)-conjugated secondary antibodies against mouse, rabbit, or goat IgG were then incubated with the membranes, and proteins were visualized by chemiluminescence according to the manufacturer's instructions. Protein quantification was performed by software.
# Total RNAs (including mRNA and miRNA) were extracted from cultured cells or mouse ears with the TRIzol Reagent. For measurement of human galectin-7, IL-6, IL-8, IL-17A, and IFN-γ levels, mRNAs were reverse-transcribed into cDNA by means of the cDNA synthesis kit, and real-time PCR was carried out with specific probes accompanied with primers targeting humangalectin-7, IL-6, and IL-8 according to the manufacturer's instructions.
# [5] = tested on: galectin-7; assay: Galectin-7 levels in lung cancer tumors transplanted in NOD SCID mice (IHC, immunoblot); assay type: in vivo; conditions: NOD SCID mice with A549, PC9, PC9-IR cells, 30 mg/kg daily oral gavage, day 21, vs saline
# Method: NOD.CB17-Prkdcscid/JNarl mice obtained from National Laboratory Animal Center (Taiwan) were engrafted 2×10^6 lung cancer cells subcutaneously at the left and right flanks of the mice. After 10 days of tumor growth, mice were treated by oral gavage with 30 mg/kg fluvastatin or lovastatin in saline solution, or saline solution alone as control, once per day for 21 days. The tumor plaques were harvested and each of them was cut into two pieces. One piece was for immunoblot analysis, and the other one was fixed with 10% formalin and embedded into paraffin block for IHC staining. All animal studies were conducted in the experimental animal facilities of Institute of Biomedical Sciences, Academia Sinica, Taipei, Taiwan, in accordance to institutional rules and ethical guidelines for experimental animal care.
# [6] = tested on: galectin-7; assay: Galectin-7 mRNA in lung cancer cell lines (qPCR); assay type: cell-based, human; conditions: CL100 and PC9-IR cells, 24 hours; methylprednisolone 10.6 μM, tobramycin 8.6 μM, fluvastatin 9.2 μM, pempidine 13 μM
# Method: as §1
# Total RNA from each lung cancer cell clone was extracted using TRIzol Reagent (Invitrogen), and cDNA for real-time PCR was generated using the iScript cDNA synthesis kit (Bio-Rad). Quantitative real-time PCR was performed using TaqMan buffer (Roche), and the primers and probes were designed using the Roche Universal Library (UPL). […] For real-time PCR, the CFX Connect Real-Time PCR System (Bio-Rad) was used, and the data were analyzed using CFX Manager software, in which the ΔΔCt method was employed to normalize the data against the endogenous control GAPDH.
# [7] = tested on: S100A7; assay: S100A7 mRNA expression in HaCaT cells (real-time PCR); assay type: cell-based, human; conditions: 24 hours, methylprednisolone 10.6 μM, tobramycin 8.6 μM, fluvastatin 9.2 μM, pempidine 13 μM
# [8] = tested on: miR-146a; assay: miR-146a expression in keratinocytes (real-time PCR); assay type: cell-based, human; conditions: HaCaT and HEKn cells treated with IL-17A
# Method: For miR-146a quantification, total RNA samples were converted to cDNA, and real-time PCR was conducted with specific primers targeting miR-146a. Human GAPDH and U6 snRNA were selected as internal controls for normalization of the levels of mRNAs and miRNAs, respectively. Relative levels of mRNAs and miRNAs were calculated, and fold changes were obtained by the ΔΔCt method and compared with vector-only control cells.
molecule,measurement,setting,value
CC(C)=CCC/C(C)=C/CC/C(C)=C/COP(=O)(O)OP(=O)(O)O [FPP],effect on fluvastatin-induced galectin-7 upregulation,"[1]; PC9-IR cells, 24 hours",blocked
"CC(C)=CCCC(C)=CCCC(C)=CCSc1ccccc1C(=O)O [FTS, farnesyl thiosalicylic acid]",galectin-7 expression,"[1]; PC9-IR cells, 1 μM fluvastatin, FTS, 24 hours",increased galectin-7 expression
CC(C)=CCC/C(C)=C/CC/C(C)=C/CC/C(C)=C/COP(=O)(O)OP(=O)(O)O [GGPP],effect on fluvastatin-induced galectin-7 upregulation,"[1]; PC9-IR cells, 24 hours",blocked
COc1cccc(-c2cc(=O)c3ccccc3o2)c1N [PD98059],IL-8 production induced by IL-17A,[2],significantly blocked
same,IL-6 production induced by IL-17A,[3],significantly blocked
S=C(S)N1CCCC1 [PDTC],IL-8 production induced by IL-17A,[2],not blocked
same,IL-6 production induced by IL-17A,[3],not blocked
C[S+]([O-])c1ccc(-c2nc(-c3ccncc3)c(-c3ccc(F)cc3)[nH]2)cc1 (centres unmarked) [SB203580],IL-8 production induced by IL-17A,[2],not blocked
same,IL-6 production induced by IL-17A,[3],not blocked
CC(C)c1c(C(=O)Nc2ccccc2)c(-c2ccccc2)c(-c2ccc(F)cc2)n1CC[C@@H](O)C[C@@H](O)CC(=O)O [atorvastatin],galectin-7 expression,[4],induced galectin-7 expression
COc1cc2ncnc(Nc3ccc(F)c(Cl)c3)c2cc1OCCCN1CCOCC1 [gefitinib],galectin-7 level (endogenous),"[1]; CL25 and CL100 cells, 10 μM, 24 hours",downregulated
same,level of ectopically overexpressed galectin-7,"[1]; CL83, CL141 and PC9 cells, 10 μM, 24 hours",also downregulated
CC[C@H](C)C(=O)O[C@H]1C[C@@H](C)C=C2C=C[C@H](C)[C@H](CC[C@@H]3C[C@@H](O)CC(=O)O3)[C@H]21 [lovastatin],galectin-7 expression in transplanted tumors,[5],increased
same,galectin-7 expression,[4],induced galectin-7 expression
CC(O)(CCO)CC(=O)O (centres unmarked) [mevalonate],effect on statin-induced upregulation of galectin-7,"[1]; PC9-IR cells, 200 μM mevalonate with 10 μM statins, 24 hours",reversed
same,effect on fluvastatin-induced galectin-7 upregulation,"[1]; PC9-IR cells, 24 hours",reversed
CC[C@H](C)C(=O)O[C@H]1CCC=C2C=C[C@H](C)[C@H](CC[C@@H]3C[C@@H](O)CC(=O)O3)[C@H]21 [mevastatin],galectin-7 expression,[4],induced galectin-7 expression
CN1C(C)(C)CCCC1(C)C [pempidine],galectin-7 expression (LGLAS7 mRNA),[6],only fluvastatin induced
same,galectin-7 mRNA and protein expression,[4]; HaCaT cells,only fluvastatin induced
same,S100A7 mRNA expression,[7],only fluvastatin
O=C(O)C[C@H](O)C[C@H](O)/C=C/c1c(C2CC2)nc2ccccc2c1-c1ccc(F)cc1 [pitavastatin],galectin-7 expression,[4],induced galectin-7 expression
NC[C@H]1O[C@H](O[C@H]2[C@H](O)[C@@H](O[C@H]3O[C@H](CO)[C@@H](O)[C@H](N)[C@H]3O)[C@H](N)C[C@@H]2N)[C@H](N)C[C@@H]1O [tobramycin],galectin-7 expression (LGLAS7 mRNA),[6],only fluvastatin induced
same,galectin-7 mRNA and protein expression,[4]; HaCaT cells,only fluvastatin induced
same,S100A7 mRNA expression,[7],only fluvastatin
"IFN-γ: interferon (IFN)-γ, immune stimulus",IL-8 production,[2],"only IL-17A (FIG. 2), TNF-α, and LPS (data not shown) induced"
same,IL-6 production,[3],"only IL-17A (FIG. 2), TNF-α, and LPS (data not shown) induced"
same,galectin-7 protein expression,[4]; HaCaT cells,modest effects
IL-17A: cytokine known to promote psoriatic inflammation,miR-146a expression,[8],induced miR-146a expression
same,IL-8 production,[2],induced
same,IL-6 production,[3],induced
same,galectin-7 protein expression,[4]; HEKn cells,reduced
same,galectin-7 protein expression,[4]; HaCaT cells,reduced
IL-21: immune stimulus,IL-8 production,[2],"only IL-17A (FIG. 2), TNF-α, and LPS (data not shown) induced"
same,IL-6 production,[3],"only IL-17A (FIG. 2), TNF-α, and LPS (data not shown) induced"
TNF-α,IL-8 production,[2],induced
same,IL-6 production,[3],induced
same,galectin-7 protein expression,[4]; HaCaT cells,significantly reduced
"epidermal growth factor (EGF): epidermal growth factor, activates EGFR signaling",galectin-7 expression,"[1]; CL25, CL100, PC9 and PC9-IR cells starved overnight, 10 ng/ml EGF",transiently upregulated
